Consider 24 molecules from ChEMBL document CHEMBL4251621, “Design, synthesis and QSAR study of novel isatin analogues inspired Michael acceptor as potential anticancer compounds” (Eur J Med Chem, 2018).

In data set [1] the test system is BGC-823. Briefly: Cytotoxicity against human BGC823 cells assessed as cell growth inhibition after 72 hrs by MTT assay. It counts as functional, cell-based. The conditions noted are these: BGC-823, 72 h.
Data set [2] concerns SGC-7901. Briefly: Cytotoxicity against human SGC7901 cells assessed as cell growth inhibition after 72 hrs by MTT assay. The conditions noted are these: SGC-7901, 72 h. It is filed as functional, cell-based.
Data set [3] deals with NCI-H460. Briefly: Cytotoxicity against human NCI-H460 cells assessed as cell growth inhibition after 72 hrs by MTT assay. It is filed as functional, cell-based. Particulars: NCI-H460, 72 h.
For data set [4], the system named is NCI-H460. Briefly: Anti-growth activity against human NCI-H460 cells assessed as reduction in colony formation at 10 uM after 48 hrs by crystal violet-based colony forming assay. It counts as functional, cell-based.
Data set [5] deals with NCI-H460. As to the kind of experiment: Anti-migratory activity against human NCI-H460 cells at 10 uM incubated for 48 hrs by wound healing assay. It counts as functional, cell-based.
For data set [6], the system named is NCI-H460. As to the kind of experiment: Growth inhibition of human NCI-H460 cells assessed as reduction in cell viability at 5 to 10 uM incubated for 24 to 72 hrs by MTT assay. It is filed as functional, cell-based.
The test system of data set [7] is NCI-H460. As to the kind of experiment: Anti-growth activity against human NCI-H460 cells assessed as reduction in colony formation after 18 hrs by crystal violet-based colony forming assay. It counts as functional, cell-based.
Data set [8] has as its system Mus musculus. As to the kind of experiment: Toxicity in BALB/C nu nude mouse xenografted with human NCI-H460 cells assessed as histopathological changes in liver at 15 mg/kg, ip administered everyday for 15 days by hematoxylin and eosin staining based light microscopic analysis. It is filed as organism-based. Particulars: in vivo, 360 h.
The test system of data set [9] is NCI-H460. As to the kind of experiment: Antitumor activity against human NCI-H460 cells xenografted in BALB/C-nu nude mouse assessed as reduction in tumor growth at 15 mg/kg, ip administered every day for 15 days. It counts as functional, organism-based.
Data set [10] concerns NCI-H460. As to the kind of experiment: Anti-migratory activity against human NCI-H460 cells incubated for 48 hrs by wound healing assay. It counts as functional, cell-based.
The test system of data set [11] is Mus musculus. As to the kind of experiment: Toxicity in BALB/C nu nude mouse xenografted with human NCI-H460 cells assessed as weight loss at 15 mg/kg, ip administered everyday for 15 days measured every 2 days. It is filed as organism-based. Particulars: in vivo.
Data set [12] concerns NCI-H460. As to the kind of experiment: Cell cycle arrest in human NCI-H460 cells assessed as accumulation at G2/M phase at 5 to 20 uM after 48 hrs by propidium iodide staining-based flow cytometry. It is filed as functional.
Data set [13] deals with NCI-H460. As to the kind of experiment: Induction of apoptosis in tumor of human NCI-H460 cells xenografted in BALB/C nu nude mouse assessed as downregulation of bcl2 expression at 15 mg/kg, ip administered everyday for 15 days by Western blot analysis. It counts as functional, organism-based.
Data set [14] has as its system Mus musculus. Briefly: Toxicity in BALB/C nu nude mouse xenografted with human NCI-H460 cells assessed as histopathological changes in lung at 15 mg/kg, ip administered everyday for 15 days by hematoxylin and eosin staining based light microscopic analysis. The conditions noted are these: in vivo, 360 h. It counts as organism-based.
Data set [15] has as its system Mus musculus. Briefly: Toxicity in BALB/C nu nude mouse xenografted with human NCI-H460 cells assessed as induction of abnormal behavior at 15 mg/kg, ip administered everyday for 15 days. It counts as organism-based. The conditions noted are these: in vivo, 360 h.
The subject of data set [16] is NCI-H460. As to the kind of experiment: Anti-growth activity against human NCI-H460 cells assessed as reduction in colony formation at 20 uM after 18 hrs by crystal violet-based colony forming assay. It counts as functional, cell-based.
Data set [17] relates to NCI-H460. Briefly: Anti-migratory activity against human NCI-H460 cells at 20 uM incubated for 48 hrs by wound healing assay. It is filed as functional, cell-based.

SMILES strings stand for the structures. Activity calls are given as the source filed them. The rule behind the calls is not given here.

In the case of `O=C1Nc2ccccc2/C1=C\C(=O)c1ccccc1`, the results for the IC50 in data set [1], in data set [2] and in data set [3] were 13.2 µM, 9.3 µM and 10.4 µM, respectively.

With `O=C1Nc2ccccc2/C1=C\C(=O)c1cccc(Cl)c1`, the IC50 is 7.7 µM in [1], 8.4 µM in data set [2] and 9.8 µM in data set [3].

Take `O=C1Nc2ccccc2/C1=C\C(=O)c1cc(Cl)ccc1Cl`: the values for the half-inhibitory concentration (IC50) in data set [1], in data set [2] and in data set [3] were 53.7 µM, 56.3 µM and 61.6 µM, respectively.

For the molecule `O=C1Nc2ccccc2/C1=C\C(=O)c1ccc(Cl)cc1`, the IC50 in data set [1] is 6.9 µM; in data set [2], 8.5 µM; in data set [3], 6.5 µM.

As for `COc1cc(O)c(CC=C(C)C)c(O)c1C(=O)/C=C/c1ccc(O)cc1` [XANTHOHUMOL], the values for the half-inhibitory concentration (IC50) in data set [1], in [2] and in [3] were 7.8 µM, 10 µM and 6.9 µM, respectively. Also, the result in data set [4] and in [5] was Active. Besides, the “growth inhibition (GI)” value in data set [6] is “Active”.

`COc1ccccc1C(=O)/C=C1/C(=O)Nc2ccccc21`: the IC50 in [1] is 10.2 µM; in [2], 16.3 µM; in data set [3], 10.2 µM.

As to `Nc1cccc(C(=O)/C=C2/C(=O)Nc3ccccc32)c1`, the values for the IC50 in [1], in [2] and in data set [3] were 29.9 µM, 14.4 µM and 20.4 µM, respectively.

For `O=C1Nc2ccccc2/C1=C\C(=O)c1ccccc1Cl`, the IC50 in [1] was 9.1 µM; in [2], 12.8 µM; in data set [3], 7.7 µM.

`O=C1Nc2ccccc2/C1=C\C(=O)c1ccc(Cl)c(Cl)c1`: the IC50 was 13.2 µM in [1], 17.8 µM in data set [2] and 13.7 µM in data set [3].

On to `O=C1Nc2ccccc2/C1=C\C(=O)c1ccc([N+](=O)[O-])cc1`, for which the values for the half-maximal inhibitory concentration (IC50) in data set [1], in data set [2] and in [3] were 14.3 µM, 18.2 µM and 18.4 µM, respectively.

As for `CC(=O)Nc1cccc(C(=O)/C=C2/C(=O)Nc3ccccc32)c1`, the IC50 in data set [1] came out at 9.1 µM; in [2], 14.1 µM; in data set [3], 12.3 µM.

For `O=C1Nc2ccccc2/C1=C\C(=O)c1cc(F)cc(F)c1`, the IC50 in [1] stood at 15.7 µM; in [2], 17.6 µM; in data set [3], 13.3 µM.

With `CC(C)C(=O)Nc1cccc(C(=O)/C=C2/C(=O)Nc3ccccc32)c1`, the values for the concentration for half-maximal inhibition (IC50) in data set [1], in [2] and in data set [3] were 6.2 µM, 8.6 µM and 9.7 µM, respectively.

Regarding `COc1ccc(C(=O)/C=C2/C(=O)Nc3ccccc32)c(OC)c1`, the IC50 in [1] is 9.2 µM; in data set [2], 11.5 µM; in [3] it was 5.4 µM.

As for `COc1cc(C(=O)/C=C2/C(=O)Nc3ccccc32)cc(OC)c1OC`, the IC50 in [1] was found to be 13.9 µM; in data set [2] it was 18.3 µM; in data set [3] it was 10.9 µM.

For the molecule `O=C1Nc2ccccc2/C1=C\C(=O)c1ccc(Br)cc1`, the IC50 in data set [1] worked out at 9 µM; in data set [2], 10.2 µM; in data set [3], 11.5 µM.

As to `O=C1Nc2ccccc2/C1=C\C(=O)c1ccccc1F`, the IC50 in data set [1] was 11.8 µM; in data set [2], 17.4 µM; in data set [3] it was 8.5 µM.

As for `COc1ccc(C(=O)/C=C2/C(=O)Nc3ccccc32)cc1`, the IC50 in data set [1] is 19.8 µM; in [2] it was 23.2 µM; in data set [3] it was 5.5 µM.

As for `C=CC(=O)Nc1cccc(C(=O)/C=C2/C(=O)Nc3ccccc32)c1`, the Activity entry in [7] is “Dose-dependent effect”; in data set [8] it was “Non-Toxic”; in data set [10], “Dose-dependent effect”; in data set [11] it was “Non-Toxic”; in data set [14], “Non-Toxic”; in [15] it was “Non-Toxic”. The Activity entry in [6] is “Dose-dependent effect”. For the same molecule, the TGI result in data set [9] is “Active”. Further, the figures for the IC50 in data set [1], in data set [2] and in data set [3] were 3.6 µM, 5.7 µM and 3.2 µM, respectively. In addition, the result in [12] and in data set [13] was Active. The “growth inhibition (GI)” value in [6] (TDE = time-dependent effect) was “Tde”.

For the molecule `O=C1Nc2ccccc2/C1=C\C(=O)c1ccc(F)cc1`, the concentration for half-maximal inhibition (IC50) in [1] worked out at 11.1 µM; in data set [2], 12.4 µM; in [3] it was 7.5 µM.

For `COc1cc(/C=C/C(=O)CC(=O)/C=C/c2ccc(O)c(OC)c2)ccc1O` [CURCUMIN], the Activity result in [8] and in data set [14] was “Non-Toxic” each time. The IC50 came to 19.5 µM in data set [1] and 26.2 µM in [2]. The outcome in [16], in [13] and in [17] was Active. In addition, the “growth inhibition (GI)” value in [6] was “Active”.

For the molecule `Nc1c(Cl)cc(C(=O)/C=C2/C(=O)Nc3ccccc32)cc1Cl`, the IC50 is 8.5 µM in data set [1], 11.9 µM in data set [2] and 6.2 µM in [3].

Take `CCC(=O)Nc1cccc(C(=O)/C=C2/C(=O)Nc3ccccc32)c1`: the values for the IC50 in data set [1], in data set [2] and in data set [3] were 7.5 µM, 11.5 µM and 10.3 µM, respectively.

Take `O=C1Nc2ccccc2/C1=C\C(=O)c1ccccc1Br`: the half-maximal inhibitory concentration (IC50) is 9.5 µM in data set [1], 13.1 µM in data set [2] and 11 µM in data set [3].
